Measured values from ChEMBL document CHEMBL3046567, “Potential applications of violacein: a microbial pigment” (Med Chem Res, 2012).
Values after ≈ are worked out from the molar mass of the structure shown.

What was measured:
Leishmania amazonensis [1] = assay: Antiparasitic activity against Leishmania amazonensis MHOM/BR /77/LTB0016 promastigote at 460.8 uM; format: functional
[2] = Cytotoxicity against Mus musculus (mouse) EAT cells; format: functional, cell-based
Caco-2 = assay: Cytotoxicity against Homo sapiens (human) Caco2 cells after 24 to 48 hr by MTT assay; format: functional, cell-based
K562 = assay: Cytotoxicity against Homo sapiens (human) K562 cells; format: functional, cell-based
Vero = assay: Cytotoxicity against […] Vero cells; format: cell-based; details: Chlorocebus sabaeus
[3] = Cytotoxicity against Macaca mulatta (Rhesus monkey) MA104 cells; format: cell-based
[4] = Cytotoxicity against Homo sapiens (human) Lymphocyte; format: cell-based
V79 = assay: Cytotoxicity against Cricetulus griseus V79 cells; format: functional, cell-based
HCT-116 = assay: Cytotoxicity against Homo sapiens (human) HCT116 cells after 24 to 48 hr by MTT assay; format: functional, cell-based
Enterovirus C = assay: Antiviral activity against Enterovirus C (Poliovirus) infected HeLa cells at 0.063 ug/ml; format: functional
NCI-H460 = assay: Cytotoxicity against Homo sapiens (human) NCI-H460 cells; format: functional
HL-60 = assay: Cytotoxicity against Homo sapiens (human) HL60 cells; format: functional, cell-based
DLD-1 = assay: Cytotoxicity against Homo sapiens (human) DLD1 cells after 24 to 48 hr by MTT assay; format: functional, cell-based
[5] = test system: Mycobacterium tuberculosis; assay: Antimycobacterial activity against Mycobacterium tuberculosis H37Rv; format: functional
Trypanosoma cruzi = assay: Antitrypanosomal activity against trypomastigote of Trypanosoma cruzi Y infected in albino mouse assessed as reduction in parasitemia at 100 mg/kg, ip for 7 days; format: functional; details: 168 h, route intraperitoneal
Mus musculus [6] = assay: Inhibition of HCl/ethanol- induced gastric damage in Mus musculus (mouse) at 10 mg/kg, po, sd; format: functional; details: Stomach
[7] = Cytotoxicity against Macaca mulatta (Rhesus monkey) FRhK4 cells; format: cell-based; details: FRhK-4
MOLT-4 = assay: Cytotoxicity against Homo sapiens (human) MOLT4 cells; format: functional
KM12 = assay: Cytotoxicity against Homo sapiens (human) KM12 cells; format: functional
Leishmania amazonensis [8] = assay: Antiparasitic activity against Leishmania amazonensis MHOM/BR /77/LTB0016 after 24 hr; format: functional, organism-based; details: MHOM/BR /77/LTB0016, 24 h
HT-29 = assay: Cytotoxicity against Homo sapiens (human) HT-29 cells after 24 to 48 hr by MTT assay; format: functional, cell-based
HEp-2 = assay: Cytotoxicity against Homo sapiens (human) Hep2 cells; format: cell-based
U-937 = assay: Cytotoxicity against Homo sapiens (human) U937 cells; format: functional, cell-based
Leishmania amazonensis [9] = assay: Antiparasitic activity against Leishmania amazonensis MHOM/BR /77/LTB0016 promastigote at 16.8 uM; format: functional
Mus musculus [10] = assay: Inhibition of HCl/ethanol- induced gastric damage in Mus musculus (mouse) at 30 mg/kg; format: functional; details: Stomach

O=C1NC(c2c[nH]c3ccc(O)cc23)=C/C1=C1\C(=O)Nc2ccccc21 [VIOLACEIN]
inhibition at 460.8 µM (Leishmania amazonensis [1]): 100% | IC50 [2]: 5 µM | IC50 (Caco-2): > 1.5 µM | IC50 (K562): < 1 µM | IC50 (Vero): 2.2 µM | IC50 [3]: 2.2 µM | IC50 [4]: 10 µM | IC50 (V79): 5 µM | IC50 (HCT-116): > 1.5 µM | inhibition at 0.063 µg/mL (Enterovirus C): 56% | GI50 (NCI-H460): 0.03 µM | IC50 (HL-60): 0.8 µM | IC50 (DLD-1): > 1.5 µM | MBC [5]: 128 µg/mL (≈ 373 µM) | MIC [5]: 64 µg/mL (≈ 186 µM) | inhibition in vivo at 100 mg/kg (Trypanosoma cruzi): 4% | inhibition in vivo at 10 mg/kg (Mus musculus [6]): 85% | IC50 [7]: 2.2 µM | GI50 (MOLT-4): 0.03 µM | GI50 (KM12): 0.03 µM | EC50 (Leishmania amazonensis [8]): 4.3 µM | IC50 (HT-29): > 1.5 µM | IC50 (HEp-2): 2.2 µM | IC50 (U-937): < 1 µM

N=C(N)c1ccc(OCCCCCOc2ccc(C(=N)N)cc2)cc1 [PENTAMIDINE]
inhibition at 16.8 µM (Leishmania amazonensis [9]): 100% | EC50 (Leishmania amazonensis [8]): 0.46 µM

Cc1c(OCC(F)(F)F)ccnc1C[S+]([O-])c1nc2ccccc2[nH]1 (configuration not stated) [LANSOPRAZOLE]
inhibition in vivo at 30 mg/kg (Mus musculus [10]): 63%
